Legend:
Assay in all cases: Kinase selectivity profile assay
Format in all cases: biochemical
SRPK2 = molecular target: T1, SRPK2 (Homo sapiens, UniProt P78362); conditions: 500 nM; relative to DMSO; read-out: Residual enzymatic activity
T1 construct: purchased Reaction Biology Corporation
Method in brief: (§1)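 Radiometric kinase assay run by a standard protocol. Unbound phosphate was removed by washing filters in phosphoric acid, and product radioactivity gave percent remaining kinase activity versus DMSO vehicle reactions. Run in duplicate.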

CDK1/cyclin A = molecular target: T2, CDK1/cyclin A (Homo sapiens, UniProt P06493); conditions: 500 nM; relative to DMSO; read-out: Residual enzymatic activity
T2 construct: purchased Reaction Biology Corporation
Method in brief: as §1

STK32B/YANK2 = molecular target: T3, STK32B/YANK2 (Homo sapiens, UniProt Q9NY57); conditions: 500 nM; relative to DMSO; read-out: Residual enzymatic activity
T3 construct: purchased Reaction Biology Corporation
Method in brief: as §1

NEK3 = molecular target: T4, NEK3 (Homo sapiens, UniProt P51956); conditions: 500 nM; relative to DMSO; read-out: Residual enzymatic activity
T4 construct: purchased Reaction Biology Corporation
Method in brief: as §1

TAOK1 = molecular target: T5, TAOK1 (Homo sapiens, UniProt Q7L7X3); conditions: 500 nM; relative to DMSO; read-out: Residual enzymatic activity
T5 construct: purchased Reaction Biology Corporation
Method in brief: as §1

EPHA4 = molecular target: T6, EPHA4 (Homo sapiens, UniProt P54764); conditions: 500 nM; relative to DMSO; read-out: Residual enzymatic activity
T6 construct: purchased Reaction Biology Corporation
Method in brief: as §1

STK25/YSK1 = molecular target: T7, STK25/YSK1 (Homo sapiens, UniProt O00506); conditions: 500 nM; relative to DMSO; read-out: Residual enzymatic activity
T7 construct: purchased Reaction Biology Corporation
Method in brief: as §1

PASK = molecular target: T8, PASK (Homo sapiens, UniProt Q96RG2); conditions: 500 nM; relative to DMSO; read-out: Residual enzymatic activity
T8 construct: purchased Reaction Biology Corporation
Method in brief: as §1

LYN B = molecular target: T9, LYN B (Homo sapiens, UniProt P07948); conditions: 500 nM; relative to DMSO; read-out: Residual enzymatic activity
T9 construct: purchased Reaction Biology Corporation (assay service)
T9 sequence (P07948 1-491 isoform P07948-2): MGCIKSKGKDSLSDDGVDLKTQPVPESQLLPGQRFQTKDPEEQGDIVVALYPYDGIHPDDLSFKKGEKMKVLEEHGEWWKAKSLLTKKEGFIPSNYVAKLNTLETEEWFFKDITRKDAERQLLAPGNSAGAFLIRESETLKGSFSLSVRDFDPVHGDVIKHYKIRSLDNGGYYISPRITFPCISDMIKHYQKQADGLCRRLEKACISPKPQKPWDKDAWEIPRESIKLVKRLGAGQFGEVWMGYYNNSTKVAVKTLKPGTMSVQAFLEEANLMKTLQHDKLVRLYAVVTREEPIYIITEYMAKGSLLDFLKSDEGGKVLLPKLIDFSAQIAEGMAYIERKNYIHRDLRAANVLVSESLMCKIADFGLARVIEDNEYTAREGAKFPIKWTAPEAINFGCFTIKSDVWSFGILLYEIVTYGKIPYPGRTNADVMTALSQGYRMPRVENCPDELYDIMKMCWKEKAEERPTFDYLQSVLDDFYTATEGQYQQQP
Method in brief: as §1

RSK4 = molecular target: T10, RSK4 (Homo sapiens, UniProt Q9UK32); conditions: 500 nM; relative to DMSO; read-out: Residual enzymatic activity
T10 construct: purchased Reaction Biology Corporation
Method in brief: as §1

NEK4 = molecular target: T11, NEK4 (Homo sapiens, UniProt P51957); conditions: 500 nM; relative to DMSO; read-out: Residual enzymatic activity
T11 construct: purchased Reaction Biology Corporation
T11 sequence (P51957 whole entry): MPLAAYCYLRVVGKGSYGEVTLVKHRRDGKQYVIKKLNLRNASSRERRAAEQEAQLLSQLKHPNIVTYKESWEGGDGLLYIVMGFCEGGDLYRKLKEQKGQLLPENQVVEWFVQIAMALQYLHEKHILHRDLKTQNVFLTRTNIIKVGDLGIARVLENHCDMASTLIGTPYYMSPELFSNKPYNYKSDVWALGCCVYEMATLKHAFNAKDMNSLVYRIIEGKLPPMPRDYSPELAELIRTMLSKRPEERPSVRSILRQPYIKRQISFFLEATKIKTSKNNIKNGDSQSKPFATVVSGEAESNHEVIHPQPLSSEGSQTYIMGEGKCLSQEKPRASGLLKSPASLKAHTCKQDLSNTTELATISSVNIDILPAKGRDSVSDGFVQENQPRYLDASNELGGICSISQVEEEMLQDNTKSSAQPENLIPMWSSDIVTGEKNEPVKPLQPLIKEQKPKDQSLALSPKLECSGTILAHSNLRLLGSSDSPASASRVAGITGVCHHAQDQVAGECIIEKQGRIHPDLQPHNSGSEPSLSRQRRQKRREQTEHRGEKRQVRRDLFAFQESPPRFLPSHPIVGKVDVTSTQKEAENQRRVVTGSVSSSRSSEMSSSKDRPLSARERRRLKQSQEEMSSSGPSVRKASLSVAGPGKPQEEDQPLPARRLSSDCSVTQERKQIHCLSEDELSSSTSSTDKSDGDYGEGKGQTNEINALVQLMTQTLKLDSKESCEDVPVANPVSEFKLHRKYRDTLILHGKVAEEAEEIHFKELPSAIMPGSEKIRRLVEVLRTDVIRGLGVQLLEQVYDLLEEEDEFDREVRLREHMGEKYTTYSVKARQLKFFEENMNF
Method in brief: as §1

TRKA = molecular target: T12, TRKA (Homo sapiens, UniProt P04629); conditions: 500 nM; relative to DMSO; read-out: Residual enzymatic activity
T12 construct: purchased Reaction Biology Corporation
Method in brief: as §1

PDK1/PDPK1 = molecular target: T13, PDK1/PDPK1 (Homo sapiens, UniProt O15530); conditions: 500 nM; relative to DMSO; read-out: Residual enzymatic activity
T13 construct: purchased Reaction Biology Corporation
Method in brief: as §1

ULK1 = molecular target: T14, ULK1 (Homo sapiens, UniProt O75385); conditions: 500 nM; relative to DMSO; read-out: Residual enzymatic activity
T14 construct: purchased Reaction Biology Corporation
Method in brief: as §1

GRK3 = molecular target: T15, GRK3 (Homo sapiens, UniProt P35626); conditions: 500 nM; relative to DMSO; read-out: Residual enzymatic activity
T15 construct: purchased Reaction Biology Corporation
Method in brief: as §1

TESK1 = molecular target: T16, TESK1 (Homo sapiens, UniProt Q15569); conditions: 500 nM; relative to DMSO; read-out: Residual enzymatic activity
T16 construct: purchased Reaction Biology Corporation
Method in brief: as §1

TLK1 = molecular target: T17, TLK1 (Homo sapiens, UniProt Q9UKI8); conditions: 500 nM; relative to DMSO; read-out: Residual enzymatic activity
T17 construct: purchased Reaction Biology Corporation
Method in brief: as §1

PHKg2 = molecular target: T18, PHKg2 (Homo sapiens, UniProt P15735); conditions: 500 nM; relative to DMSO; read-out: Residual enzymatic activity
T18 construct: purchased Reaction Biology Corporation
Method in brief: as §1

NLK = molecular target: T19, NLK (Homo sapiens, UniProt Q9UBE8); conditions: 500 nM; relative to DMSO; read-out: Residual enzymatic activity
T19 construct: purchased Reaction Biology Corporation
T19 sequence (Q9UBE8 whole entry): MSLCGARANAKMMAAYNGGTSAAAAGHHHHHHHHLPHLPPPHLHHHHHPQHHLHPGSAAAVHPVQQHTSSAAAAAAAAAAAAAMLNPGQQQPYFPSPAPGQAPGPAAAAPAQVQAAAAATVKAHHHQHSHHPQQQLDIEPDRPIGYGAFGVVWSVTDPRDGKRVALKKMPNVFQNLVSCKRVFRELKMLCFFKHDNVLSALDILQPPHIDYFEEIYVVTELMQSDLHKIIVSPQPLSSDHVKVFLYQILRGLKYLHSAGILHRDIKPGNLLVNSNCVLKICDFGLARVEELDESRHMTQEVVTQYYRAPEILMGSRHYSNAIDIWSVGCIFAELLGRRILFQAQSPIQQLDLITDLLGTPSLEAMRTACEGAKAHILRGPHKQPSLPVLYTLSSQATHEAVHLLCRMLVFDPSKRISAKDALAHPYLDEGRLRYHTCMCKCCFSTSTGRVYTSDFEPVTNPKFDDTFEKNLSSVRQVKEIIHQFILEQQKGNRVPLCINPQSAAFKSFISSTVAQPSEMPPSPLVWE
Method in brief: as §1

JNK3 = molecular target: T20, JNK3 (Homo sapiens, UniProt P53779); conditions: 500 nM; relative to DMSO; read-out: Residual enzymatic activity
T20 construct: purchased Reaction Biology Corporation
T20 sequence (P53779 whole entry): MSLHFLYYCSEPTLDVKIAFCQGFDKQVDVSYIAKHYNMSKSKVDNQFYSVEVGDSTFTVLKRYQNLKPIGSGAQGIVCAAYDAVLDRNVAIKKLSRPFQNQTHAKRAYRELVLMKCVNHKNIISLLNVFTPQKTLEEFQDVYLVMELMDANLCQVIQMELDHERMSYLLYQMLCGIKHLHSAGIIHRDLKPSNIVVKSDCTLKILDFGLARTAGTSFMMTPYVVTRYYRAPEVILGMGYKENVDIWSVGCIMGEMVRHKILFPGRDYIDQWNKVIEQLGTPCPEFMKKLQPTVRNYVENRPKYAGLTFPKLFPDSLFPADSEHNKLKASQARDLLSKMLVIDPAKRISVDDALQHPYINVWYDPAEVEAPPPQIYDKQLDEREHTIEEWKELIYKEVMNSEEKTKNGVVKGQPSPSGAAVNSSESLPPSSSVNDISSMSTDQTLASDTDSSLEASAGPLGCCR
Method in brief: as §1

ALK6/BMPR1B = molecular target: T21, ALK6/BMPR1B (Homo sapiens, UniProt O00238); conditions: 500 nM; relative to DMSO; read-out: Residual enzymatic activity
T21 construct: purchased Reaction Biology Corporation
Method in brief: as §1

p70S6K/RPS6KB1 = molecular target: T22, p70S6K/RPS6KB1 (Homo sapiens, UniProt P23443); conditions: 500 nM; relative to DMSO; read-out: Residual enzymatic activity
T22 construct: purchased Reaction Biology Corporation
T22 sequence (P23443 whole entry): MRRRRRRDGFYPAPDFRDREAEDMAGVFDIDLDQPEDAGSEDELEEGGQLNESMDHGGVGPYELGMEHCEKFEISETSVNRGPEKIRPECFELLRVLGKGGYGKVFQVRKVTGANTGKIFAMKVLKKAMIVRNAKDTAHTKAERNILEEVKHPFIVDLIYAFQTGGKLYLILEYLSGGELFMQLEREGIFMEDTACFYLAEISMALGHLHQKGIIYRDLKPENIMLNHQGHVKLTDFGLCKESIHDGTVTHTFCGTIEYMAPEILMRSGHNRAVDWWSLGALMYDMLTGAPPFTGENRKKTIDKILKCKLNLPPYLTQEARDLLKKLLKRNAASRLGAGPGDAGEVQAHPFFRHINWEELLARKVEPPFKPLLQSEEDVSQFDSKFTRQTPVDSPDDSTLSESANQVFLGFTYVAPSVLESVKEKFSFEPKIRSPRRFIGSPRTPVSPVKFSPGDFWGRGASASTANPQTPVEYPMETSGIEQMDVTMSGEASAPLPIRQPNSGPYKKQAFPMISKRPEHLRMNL
Method in brief: as §1

PKCa = molecular target: T23, PKCa (Homo sapiens, UniProt P17252); conditions: 500 nM; relative to DMSO; read-out: Residual enzymatic activity
T23 construct: purchased Reaction Biology Corporation
Method in brief: as §1

MLCK/MYLK = molecular target: T24, MLCK/MYLK (Homo sapiens, UniProt Q15746); conditions: 500 nM; relative to DMSO; read-out: Residual enzymatic activity
T24 construct: purchased Reaction Biology Corporation
Method in brief: as §1

MLK2/MAP3K10 = molecular target: T25, MLK2/MAP3K10 (Homo sapiens, UniProt Q02779); conditions: 500 nM; relative to DMSO; read-out: Residual enzymatic activity
T25 construct: purchased Reaction Biology Corporation (assay service)
T25 sequence (Q02779 whole entry): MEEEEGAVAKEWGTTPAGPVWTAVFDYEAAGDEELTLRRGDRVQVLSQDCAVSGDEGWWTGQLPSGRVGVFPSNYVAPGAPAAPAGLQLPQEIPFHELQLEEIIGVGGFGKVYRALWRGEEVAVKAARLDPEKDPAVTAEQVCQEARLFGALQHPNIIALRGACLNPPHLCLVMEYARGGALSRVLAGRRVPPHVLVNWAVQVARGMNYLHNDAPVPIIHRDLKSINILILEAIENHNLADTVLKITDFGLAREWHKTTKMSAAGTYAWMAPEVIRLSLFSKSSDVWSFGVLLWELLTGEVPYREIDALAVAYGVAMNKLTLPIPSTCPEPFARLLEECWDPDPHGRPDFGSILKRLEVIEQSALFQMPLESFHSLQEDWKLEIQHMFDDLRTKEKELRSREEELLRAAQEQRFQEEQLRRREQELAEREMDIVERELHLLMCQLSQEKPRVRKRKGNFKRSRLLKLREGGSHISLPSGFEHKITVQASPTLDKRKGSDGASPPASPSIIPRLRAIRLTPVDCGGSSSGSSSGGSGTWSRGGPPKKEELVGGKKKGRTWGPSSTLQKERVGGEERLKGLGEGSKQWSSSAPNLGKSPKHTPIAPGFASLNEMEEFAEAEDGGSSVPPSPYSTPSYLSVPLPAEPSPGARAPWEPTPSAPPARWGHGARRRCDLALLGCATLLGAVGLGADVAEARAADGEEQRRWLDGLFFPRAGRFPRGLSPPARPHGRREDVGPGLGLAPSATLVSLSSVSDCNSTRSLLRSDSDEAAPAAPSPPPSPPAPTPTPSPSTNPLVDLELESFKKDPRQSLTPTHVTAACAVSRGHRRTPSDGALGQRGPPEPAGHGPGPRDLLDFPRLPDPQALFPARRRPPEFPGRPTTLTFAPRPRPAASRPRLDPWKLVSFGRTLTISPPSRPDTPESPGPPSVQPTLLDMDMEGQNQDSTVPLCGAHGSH
Method in brief: as §1

MST1/STK4 = molecular target: T26, MST1/STK4 (Homo sapiens, UniProt Q13043); conditions: 500 nM; relative to DMSO; read-out: Residual enzymatic activity
T26 construct: purchased Reaction Biology Corporation
Method in brief: as §1

MRCKa/CDC42BPA = molecular target: T27, MRCKa/CDC42BPA (Homo sapiens, UniProt Q5VT25); conditions: read-out: Residual enzymatic activity
T27 construct: purchased Reaction Biology Corporation
Method in brief: as §1

PKCb2 = molecular target: T28, PKCb2 (Homo sapiens, UniProt P05771); conditions: 500 nM; relative to DMSO; read-out: Residual enzymatic activity
T28 construct: purchased Reaction Biology Corporation
T28 sequence (P05771 1-673 isoform P05771-2): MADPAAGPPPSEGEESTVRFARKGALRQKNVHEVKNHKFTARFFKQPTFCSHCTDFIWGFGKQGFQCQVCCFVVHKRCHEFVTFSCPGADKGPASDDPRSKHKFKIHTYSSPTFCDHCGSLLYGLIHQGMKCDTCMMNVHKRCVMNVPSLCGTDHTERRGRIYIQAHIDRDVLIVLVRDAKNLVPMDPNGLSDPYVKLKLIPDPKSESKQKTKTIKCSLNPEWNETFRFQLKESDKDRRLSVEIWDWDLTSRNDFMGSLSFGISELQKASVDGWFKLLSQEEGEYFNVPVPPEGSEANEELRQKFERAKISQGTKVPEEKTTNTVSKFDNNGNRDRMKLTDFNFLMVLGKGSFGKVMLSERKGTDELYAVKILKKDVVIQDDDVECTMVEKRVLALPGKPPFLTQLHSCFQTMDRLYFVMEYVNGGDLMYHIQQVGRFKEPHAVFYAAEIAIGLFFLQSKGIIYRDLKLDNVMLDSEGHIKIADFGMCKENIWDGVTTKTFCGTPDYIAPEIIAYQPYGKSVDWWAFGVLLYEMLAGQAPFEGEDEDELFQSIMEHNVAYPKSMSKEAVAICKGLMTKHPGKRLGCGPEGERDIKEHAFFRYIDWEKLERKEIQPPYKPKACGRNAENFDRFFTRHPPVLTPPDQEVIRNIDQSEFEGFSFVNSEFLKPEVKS
Method in brief: as §1

DMPK = molecular target: T29, DMPK (Homo sapiens, UniProt Q09013); conditions: 500 nM; relative to DMSO; read-out: Residual enzymatic activity
T29 construct: purchased Reaction Biology Corporation
Method in brief: as §1

CDK1/cyclin E = molecular target: T30, CDK1/cyclin E (Homo sapiens, UniProt P06493); conditions: 500 nM; relative to DMSO; read-out: Residual enzymatic activity
T30 construct: purchased Reaction Biology Corporation
Method in brief: as §1

ROCK2 = molecular target: T31, ROCK2 (Homo sapiens, UniProt O75116); conditions: 500 nM; relative to DMSO; read-out: Residual enzymatic activity
T31 construct: purchased Reaction Biology Corporation
Method in brief: as §1

STK38/NDR1 = molecular target: T32, STK38/NDR1 (Homo sapiens, UniProt Q15208); conditions: 500 nM; relative to DMSO; read-out: Residual enzymatic activity
T32 construct: purchased Reaction Biology Corporation
T32 sequence (Q15208 whole entry): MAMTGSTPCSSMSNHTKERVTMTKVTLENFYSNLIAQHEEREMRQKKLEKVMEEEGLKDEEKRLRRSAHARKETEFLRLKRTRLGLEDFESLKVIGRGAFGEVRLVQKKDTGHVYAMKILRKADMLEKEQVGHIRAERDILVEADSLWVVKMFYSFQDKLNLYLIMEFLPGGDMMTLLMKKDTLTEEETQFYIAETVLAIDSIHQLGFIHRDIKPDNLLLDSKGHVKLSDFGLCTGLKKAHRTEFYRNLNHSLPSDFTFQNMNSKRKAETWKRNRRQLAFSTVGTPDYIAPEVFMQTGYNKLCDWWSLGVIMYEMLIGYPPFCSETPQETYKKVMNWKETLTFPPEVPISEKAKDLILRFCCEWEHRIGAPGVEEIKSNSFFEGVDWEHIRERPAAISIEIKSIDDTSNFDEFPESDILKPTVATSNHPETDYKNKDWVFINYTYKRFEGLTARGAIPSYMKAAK
Method in brief: as §1

IKKb/IKBKB = molecular target: T33, IKKb/IKBKB (Homo sapiens, UniProt O14920); conditions: 500 nM; relative to DMSO; read-out: Residual enzymatic activity
T33 construct: purchased Reaction Biology Corporation
Method in brief: as §1

FGFR1 = molecular target: T34, FGFR1 (Homo sapiens, UniProt P11362); conditions: 500 nM; relative to DMSO; read-out: Residual enzymatic activity
T34 construct: purchased Reaction Biology Corporation
Method in brief: as §1

PLK1 = molecular target: T35, PLK1 (Homo sapiens, UniProt P53350); conditions: 500 nM; relative to DMSO; read-out: Residual enzymatic activity
T35 construct: purchased Reaction Biology Corporation
Method in brief: as §1

MAPKAPK2 = molecular target: T36, MAPKAPK2 (Homo sapiens, UniProt P49137); conditions: 500 nM; relative to DMSO; read-out: Residual enzymatic activity
T36 construct: purchased Reaction Biology Corporation
Method in brief: as §1

TGFBR2 = molecular target: T37, TGFBR2 (Homo sapiens, UniProt P37173); conditions: 500 nM; relative to DMSO; read-out: Residual enzymatic activity
T37 construct: purchased Reaction Biology Corporation
Method in brief: as §1

GRK1 = molecular target: T38, GRK1 (Homo sapiens, UniProt Q15835); conditions: 500 nM; relative to DMSO; read-out: Residual enzymatic activity
T38 construct: purchased Reaction Biology Corporation
Method in brief: as §1

ALK5/TGFBR1 = molecular target: T39, ALK5/TGFBR1 (Homo sapiens, UniProt P36897); conditions: 500 nM; relative to DMSO; read-out: Residual enzymatic activity
T39 construct: purchased Reaction Biology Corporation
Method in brief: as §1

Compound: COc1cc(Nc2ncc(F)c(Nc3ccc4c(n3)NC(=O)C(C)(C)O4)n2)cc(OC)c1OC [R406, reference compound]
- remaining activity at 0.5 µM (SRPK2): 104%
- remaining activity at 0.5 µM (CDK1/cyclin A): 74.2%
- remaining activity at 0.5 µM (STK32B/YANK2): 92%
- remaining activity at 0.5 µM (NEK3): 19.2%
- remaining activity at 0.5 µM (TAOK1): 78.1%
- remaining activity at 0.5 µM (EPHA4): 42.8%
- remaining activity at 0.5 µM (STK25/YSK1): 90.7%
- remaining activity at 0.5 µM (PASK): 106%
- remaining activity at 0.5 µM (LYN B): 14.5%
- remaining activity at 0.5 µM (RSK4): 45.6%
- remaining activity at 0.5 µM (NEK4): 52.1%
- remaining activity at 0.5 µM (TRKA): 25.7%
- remaining activity at 0.5 µM (PDK1/PDPK1): 30.7%
- remaining activity at 0.5 µM (ULK1): 8.8%
- remaining activity at 0.5 µM (GRK3): 102%
- remaining activity at 0.5 µM (TESK1): 85.7%
- remaining activity at 0.5 µM (TLK1): 75.1%
- remaining activity at 0.5 µM (PHKg2): 93.4%
- remaining activity at 0.5 µM (NLK): 107%
- remaining activity at 0.5 µM (JNK3): 114%
- remaining activity at 0.5 µM (ALK6/BMPR1B): 145%
- remaining activity at 0.5 µM (p70S6K/RPS6KB1): 49.1%
- remaining activity at 0.5 µM (PKCa): 58.3%
- remaining activity at 0.5 µM (MLCK/MYLK): 90.5%
- remaining activity at 0.5 µM (MLK2/MAP3K10): 1.1%
- remaining activity at 0.5 µM (MST1/STK4): 86.3%
- remaining activity at 0.5 µM (MRCKa/CDC42BPA): 104%
- remaining activity at 0.5 µM (PKCb2): 30.7%
- remaining activity at 0.5 µM (DMPK): 90.5%
- remaining activity at 0.5 µM (CDK1/cyclin E): 76.5%
- remaining activity at 0.5 µM (ROCK2): 77.6%
- remaining activity at 0.5 µM (STK38/NDR1): 70.4%
- remaining activity at 0.5 µM (IKKb/IKBKB): 53%
- remaining activity at 0.5 µM (FGFR1): 29%
- remaining activity at 0.5 µM (PLK1): 60.4%
- remaining activity at 0.5 µM (MAPKAPK2): 106%
- remaining activity at 0.5 µM (TGFBR2): 97.1%
- remaining activity at 0.5 µM (GRK1): 96%
- remaining activity at 0.5 µM (ALK5/TGFBR1): 108%
